Assay results published in ChEMBL document CHEMBL1138648, “Synthesis of new N-(2-(trifluoromethyl)pyridin-4-yl)anthranilic acid derivatives and their evaluation as anticancer agents” (2004).

Assays:
Type in all cases: functional
M14 = test: Growth inhibitory activity against Melanoma M14 cell line was determined; conditions: Homo sapiens
K562 = test: Growth inhibitory activity against Leukemia K-562 cell line was determined; conditions: Homo sapiens
MOLT-4 = test: Growth inhibitory activity against Leukemia MOLT-4 cell line was determined; conditions: Homo sapiens
UACC-62 = test: Growth inhibitory activity against Melanoma UACC-62 cell line was determined; conditions: Homo sapiens
SF-268 [1] = test: Growth inhibitory activity against CNS cancer SF-268 cell line was determined; conditions: Homo sapiens
SF-295 = test: Growth inhibitory activity against CNS cancer SF-295 cell line was determined; conditions: Homo sapiens
SF-539 = test: Growth inhibitory activity against CNS cancer SF-539 cell line was determined; conditions: Homo sapiens
CCRF-CEM = test: Growth inhibitory activity against Leukemia CCRF-CEM cell line was determined; conditions: Homo sapiens
SK-MEL-5 = test: Growth inhibitory activity against Melanoma SK-MEL-5 cell line was determined; conditions: Homo sapiens
A498 = test: Growth inhibitory activity against Renal cancer A498 cell line was determined; conditions: Homo sapiens
ACHN = test: Growth inhibitory activity against Renal cancer ACHN cell line was determined; conditions: Homo sapiens
MDA-MB-435 = test: Growth inhibitory activity against Breast cancer MDA-MB-435 cell line was determined; conditions: Homo sapiens
NCI/ADR-RES = test: Growth inhibitory activity against Breast cancer NCI/ADR-RES cell line was determined; conditions: Homo sapiens
MDA-MB-231 = test: Growth inhibitory activity against Breast cancer MDA-MB-231/ATCC cell line was determined; conditions: Homo sapiens
EKVX = test: Growth inhibitory activity against non small cell lung cancer EKVX cell line was determined; conditions: Homo sapiens
NCI-H460 [2] = test: Growth inhibitory activity against non small cell lung cancer H460 cell line was determined; conditions: Homo sapiens
NCI-H522 = test: Growth inhibitory activity against non small cell lung cancer H522 cell line was determined; conditions: Homo sapiens
NCI-H23 = test: Growth inhibitory activity against non small cell lung cancer NCI-H23 cell line was determined; conditions: Homo sapiens
NCI-H226 = test: Growth inhibitory activity against non small cell lung cancer NCI-H226 cell line was determined; conditions: Homo sapiens
A549 = test: Growth inhibitory activity against non small cell lung cancer A549/ATCC cells; conditions: Homo sapiens
NCI-H322M = test: Growth inhibitory activity against non small cell lung cancer NCI-H322M cell line was determined; conditions: Homo sapiens
HOP-92 = test: Growth inhibitory activity against non small cell lung cancer HOP-92 cell line was determined; conditions: Homo sapiens
UACC-257 = test: Growth inhibitory activity against Melanoma UACC-257 cell line was determined; conditions: Homo sapiens
NCI-H460 [3] = test: In vitro percent of proliferation of vehicle treated NCI-H460 human lung cell lines was determined at 0.0010 M concentration
KM12 = test: Growth inhibitory activity against colon cancer KM12 cell line was determined; conditions: Homo sapiens
MCF7 [4] = test: Growth inhibitory activity against Breast cancer MCF-7 cell line was determined; conditions: Homo sapiens
HL-60 = test: Growth inhibitory activity against Leukemia HL-60(TB) cell line was determined; conditions: Homo sapiens
RPMI-8226 = test: Growth inhibitory activity against Leukemia RPMI-8226 cell line was determined; conditions: Homo sapiens
SR = test: Growth inhibitory activity against Leukemia SR cell line was determined; conditions: Homo sapiens
786-0 = test: Growth inhibitory activity against Renal cancer 786-0 cell line was determined; conditions: Homo sapiens
SN12C = test: Growth inhibitory activity against Renal cancer SN12C cell line was determined; conditions: Homo sapiens
TK-10 = test: Growth inhibitory activity against Renal cancer TK-10 cell line was determined; conditions: Homo sapiens
CAKI-1 = test: Growth inhibitory activity against Renal cancer CAKI-1 cell line was determined; conditions: Homo sapiens
HCT-15 = test: Growth inhibitory activity against colon cancer HCT-15 cell line was determined; conditions: Homo sapiens
SW-620 = test: Growth inhibitory activity against colon cancer SW-620 cell line was determined; conditions: Homo sapiens
BT-549 = test: Growth inhibitory activity against Breast cancer BT-549 cell line was determined; conditions: Homo sapiens
PC-3 = test: Growth inhibitory activity against Prostate cancer PC-3 cell line was determined; conditions: Homo sapiens
Hs-578T = test: Growth inhibitory activity against Breast cancer HS 578T cell line was determined; conditions: Homo sapiens
HCC 2998 = test: Growth inhibitory activity against colon cancer HCC2998 cell line was determined; conditions: Homo sapiens
OVCAR-3 = test: Growth inhibitory activity against Ovarian cancer OVCAR-3 cell line was determined; conditions: Homo sapiens
OVCAR-5 = test: Growth inhibitory activity against Ovarian cancer OVCAR-5 cell line was determined; conditions: Homo sapiens
OVCAR-8 = test: Growth inhibitory activity against Ovarian cancer OVCAR-8 cell line was determined; conditions: Homo sapiens
DU-145 = test: Growth inhibitory activity against Prostate cancer DU-145 cell line was determined; conditions: Homo sapiens
SF-268 [5] = test: In vitro percent of proliferation of vehicle treated SF-268 human CNS cell lines was determined at 0.0010 M concentration
MCF7 [6] = test: In vitro percent of proliferation of vehicle treated MCF-7 human breast cell lines was determined at 0.0010 M concentration

## O=C(Oc1ccc(Cl)cc1Cl)c1ccccc1Nc1ccnc(C(F)(F)F)c1
M14
  GI50: 1.9 µM
K562
  GI50: 3 µM
MOLT-4
  GI50: 100 µM
UACC-62
  GI50: 2.3 µM
SF-268 [1]
  GI50: 3.1 µM
SF-295
  GI50: 15 µM
SF-539
  GI50: 3.8 µM
CCRF-CEM
  GI50: 3.5 µM
SK-MEL-5
  GI50: 2.8 µM
A498
  GI50: 21 µM
ACHN
  GI50: 13 µM
MDA-MB-435
  GI50: 2.9 µM
NCI/ADR-RES
  GI50: 3.6 µM
MDA-MB-231
  GI50: 2.2 µM
EKVX
  GI50: 19 µM
NCI-H460 [2]
  GI50: 4.3 µM
NCI-H522
  GI50: 4.6 µM
NCI-H23
  GI50: 3.5 µM
NCI-H226
  GI50: 3.4 µM
A549
  GI50: 11 µM
NCI-H322M
  GI50: 14 µM
HOP-92
  GI50: 12 µM
UACC-257
  GI50: 11 µM
NCI-H460 [3]
  Proliferation: 1%
KM12
  GI50: 3.7 µM
MCF7 [4]
  GI50: 3.6 µM
HL-60
  GI50: 6.6 µM
RPMI-8226
  GI50: 2.4 µM
SR
  GI50: 0.77 µM
786-0
  GI50: 1.9 µM
SN12C
  GI50: 3 µM
TK-10
  GI50: 4.1 µM
CAKI-1
  GI50: 2.1 µM
HCT-15
  GI50: 2.2 µM
SW-620
  GI50: 4.6 µM
BT-549
  GI50: 6.8 µM
PC-3
  GI50: 8.3 µM
Hs-578T
  GI50: 25 µM
HCC 2998
  GI50: 3.2 µM
OVCAR-3
  GI50: 11 µM
OVCAR-5
  GI50: 7.9 µM
OVCAR-8
  GI50: 4.8 µM
DU-145
  GI50: 16 µM
SF-268 [5]
  Proliferation: 9%
MCF7 [6]
  Proliferation: 3%

## CSc1ccc(OC(=O)c2ccccc2Nc2ccnc(C(F)(F)F)c2)cc1
NCI-H460 [3]
  Proliferation: 68%
SF-268 [5]
  Proliferation: 81%
MCF7 [6]
  Proliferation: 80%

## O=C(Nc1ccncc1)c1ccccc1Nc1ccnc(C(F)(F)F)c1
NCI-H460 [3]
  Proliferation: 99%
SF-268 [5]
  Proliferation: 96%
MCF7 [6]
  Proliferation: 79%
